# Laboratory results as given in patent US9302999B2, “Substituted triazoles as herbicides” (E. I. DU PONT DE NEMOURS AND COMPANY, priority 2012, dated 2016).
# Where two headings read alike, the source gives them in different places.
# Assays:
# Assay type in all cases: in vivo
# [1] = test system: morningglory (Ipomoea spp.); assay: Test A pre-/postemergence: morningglory
# Outline: (§1)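 Soil medium was loam blended with sand; treatments pre- and postemergence were applied concurrently, postemergence at one- to two-leaf stage. Approximately ten days in greenhouse preceded visual comparison with untreated controls, scored 0 (no effect) to 100 (complete control).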
# [2] = test system: kochia (Kochia scoparia); assay: Test C pre-/postemergence: kochia; conditions: Postemergence
# Outline: (§2)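 Preemergence on seeds in loam/sand, postemergence on 2–18 cm (1–4-leaf) plants in peat-based medium; compounds in non-phytotoxic solvent with surfactant. After 13–15 days in greenhouse, visual rating versus controls, 0 (no effect) to 100 (complete control).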
# [3] = test system: corn (Zea mays); assay: Test C pre-/postemergence: corn
# Outline: as §2
# [4] = test system: morningglory (Ipomoea coccinea); assay: Test C pre-/postemergence: morningglory
# Outline: as §2
# [5] = test system: wheat (Triticum aestivum); assay: Test A pre-/postemergence: wheat; conditions: for plant injury at 125 g/ha / plant injury at 500 g/ha: Triticum aestivum, 240 h
# Outline: as §1
# [6] = test system: chickweed (common chickweed, Stellaria media); assay: Test C postemergence: chickweed
# Outline: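 Crop and weed plants were grown in peat-vermiculite medium and treated postemergence at the 1- to 4-leaf stage (2-18 cm tall). After 13-15 days in a greenhouse, each species was rated visually against untreated controls on a 0-100 scale (0 no effect, 100 complete control).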
# [7] = test system: pigweed (Amaranthus retroflexus); assay: Test A pre-/postemergence: pigweed; conditions: for pest or weed control at 125 g/ha / pest or weed control at 500 g/ha: Amaranthus retroflexus, 240 h
# Outline: as §1
# [8] = test system: velvetleaf (Abutilon theophrasti); assay: Test A pre-/postemergence: velvetleaf; conditions: for pest or weed control at 125 g/ha / pest or weed control at 500 g/ha: Abutilon theophrasti, 240 h
# Outline: as §1
# [9] = test system: velvetleaf (Abutilon theophrasti); assay: Test C pre-/postemergence: velvetleaf
# Outline: as §2
# [10] = test system: foxtail, giant (giant foxtail, Setaria faberii); assay: Test A pre-/postemergence: foxtail, giant; conditions: for pest or weed control at 125 g/ha / pest or weed control at 500 g/ha: Setaria faberi, 240 h
# Outline: as §1
# [11] = test system: winter wheat (Triticum aestivum); assay: Test C pre-/postemergence: winter wheat
# Outline: as §2
# [12] = test system: ragweed (common ragweed, Ambrosia elation); assay: Test C pre-/postemergence: ragweed
# Outline: as §2
# [13] = Postemergence, 125 g ai/ha, 0 to 100 scale, 0 is no effect, 100 is complete control
# [14] = Postemergence, 500 g ai/ha, visual rating on 0 to 100 scale (0 no effect, 100 complete control), approximately ten days
# [15] = Preemergence, 125 g ai/ha, 0 to 100 scale where 0 is no effect and 100 is complete control
# [16] = Preemergence, 500 g ai/ha, 0 to 100 scale (0 no effect, 100 complete control)
# [17] = 31 g ai/ha, scale 0 to 100 (0 no effect, 100 complete control)
# [18] = 62 g ai/ha, scale 0 to 100 (0 no effect, 100 complete control)
# [19] = 125 g ai/ha, scale 0 to 100, 0 no effect, 100 complete control
# [20] = Postemergence, 31 g ai/ha, scale 0 to 100 (0 no effect, 100 complete control)
# [21] = Postemergence, 62 g ai/ha, scale 0 to 100 (0 no effect, 100 complete control)
# [22] = Postemergence, 125 g ai/ha, scale 0 to 100, 0 no effect, 100 complete control
# [23] = Postemergence, 250 g ai/ha, scale 0 to 100
# [24] = Preemergence, 31 g ai/ha, scale of 0 to 100, 0 is no effect, 100 is complete control
# [25] = Preemergence, 62 g ai/ha, scale of 0 to 100, 0 is no effect, 100 is complete control
# [26] = Preemergence, 125 g ai/ha, scale 0 to 100, 0 no effect, 100 complete control
# [27] = Preemergence, 250 g ai/ha, scale 0 to 100, 0 no effect, 100 complete control
compound,measurement,setting,value
CCCc1nn(-c2ccc(F)cc2)nc1Cc1ccnc(C(F)(F)F)c1 [Compound 153],"Plant response rating, Morningglory",[1]; [13],90
same,Morningglory plant response rating,[1]; [14],100
same,"Plant response rating, Morningglory",[1]; [15],80
same,"Plant response rating, Morningglory",[1]; [16],100
same,"Plant response rating, Kochia",[2]; [17],90
same,"Plant response rating, Kochia",[2]; [18],90
same,"Plant response rating, Kochia",[2]; [19],90
same,"Plant response rating, Kochia","[2]; 250 g ai/ha, scale 0 to 100",90
same,"Plant response rating, Corn",[3]; [20],20
same,"Plant response rating, Corn",[3]; [21],25
same,"Plant response rating, Corn",[3]; [22],45
same,"Plant response rating, Corn",[3]; [23],55
same,"Plant response rating, Corn",[3]; [24],10
same,"Plant response rating, Corn",[3]; [25],25
same,"Plant response rating, Corn",[3]; [26],25
same,"Plant response rating, Corn",[3]; [27],35
same,"Plant response rating, Morningglory",[4]; [20],40
same,"Plant response rating, Morningglory",[4]; [21],80
same,"Plant response rating, Morningglory",[4]; [22],95
same,"Plant response rating, Morningglory",[4]; [23],95
same,"Plant response rating, Morningglory",[4]; [24],20
same,"Plant response rating, Morningglory",[4]; [25],30
same,"Plant response rating, Morningglory",[4]; [26],50
same,"Plant response rating, Morningglory",[4]; [27],50
same,"Plant response rating, Wheat",[5]; [13],60
same,Wheat plant response rating,[5]; [14],70
same,"Plant response rating, Wheat",[5]; [15],50
same,"Plant response rating, Wheat",[5]; [16],70
same,"Plant response rating, Chickweed",[6]; [17],95
same,"Plant response rating, Chickweed",[6]; [18],95
same,"Plant response rating, Chickweed",[6]; [19],95
same,"Plant response rating, Chickweed","[6]; 250 g ai/ha, scale 0 to 100",95
same,"Plant response rating, Pigweed",[7]; [13],100
same,Pigweed plant response rating,[7]; [14],100
same,"Plant response rating, Pigweed",[7]; [15],100
same,"Plant response rating, Pigweed",[7]; [16],100
same,"Plant response rating, Velvetleaf",[8]; [13],100
same,Velvetleaf plant response rating,[8]; [14],100
same,"Plant response rating, Velvetleaf",[8]; [15],80
same,"Plant response rating, Velvetleaf",[8]; [16],100
same,"Plant response rating, Velvetleaf",[9]; [20],50
same,"Plant response rating, Velvetleaf",[9]; [21],60
same,"Plant response rating, Velvetleaf",[9]; [22],65
same,"Plant response rating, Velvetleaf",[9]; [23],95
same,"Plant response rating, Velvetleaf",[9]; [25],85
same,"Plant response rating, Velvetleaf",[9]; [26],95
same,"Plant response rating, Velvetleaf",[9]; [27],100
same,"Plant response rating, Foxtail, Giant",[10]; [13],90
same,"Foxtail, Giant plant response rating",[10]; [14],100
same,"Plant response rating, Foxtail, Giant",[10]; [15],100
same,"Plant response rating, Foxtail, Giant",[10]; [16],100
same,"Plant response rating, Wheat",[11]; [20],10
same,"Plant response rating, Wheat",[11]; [21],30
same,"Plant response rating, Wheat",[11]; [22],30
same,"Plant response rating, Wheat",[11]; [23],30
same,"Plant response rating, Wheat",[11]; [25],35
same,"Plant response rating, Wheat",[11]; [26],60
same,"Plant response rating, Wheat",[11]; [27],60
same,"Plant response rating, Ragweed",[12]; [20],55
same,"Plant response rating, Ragweed",[12]; [21],55
same,"Plant response rating, Ragweed",[12]; [22],80
same,"Plant response rating, Ragweed",[12]; [23],85
same,"Plant response rating, Ragweed",[12]; [24],5
same,"Plant response rating, Ragweed",[12]; [25],10
same,"Plant response rating, Ragweed",[12]; [26],80
same,"Plant response rating, Ragweed",[12]; [27],80
"Cc1nn(-c2ccc(F)cc2)nc1Cc1ccnc(C(F)(F)F)c1 [Compound 16, 4-[[2-(4-fluorophenyl)-5-methyl-2H-1,2,3-triazol-4-yl]methyl]-2-(trifluoromethyl)pyridine]",pest or weed control at 125 g/ha,"[1]; Ipomoea, post-emergence, 240 h, Postemergence, 125 g ai/ha, 0 to 100 scale, 0 is no effect, 100 is complete control, read-out: Morningglory plant response rating",80%
same,pest or weed control at 500 g/ha,"[1]; Ipomoea, post-emergence, 240 h, Postemergence, 500 g ai/ha, visual rating on 0 to 100 scale (0 no effect, 100 complete control), approximately ten days, read-out: Morningglory plant response rating",100%
same,pest or weed control at 500 g/ha,"[1]; Ipomoea, pre-emergence, 240 h, Preemergence, 500 g ai/ha, 0 to 100 scale, 0 is no effect, 100 is complete control, read-out: Plant response rating, Morningglory",80%
same,"Plant response rating, Kochia",[2]; [17],95
same,"Plant response rating, Kochia",[2]; [18],98
same,"Plant response rating, Kochia",[2]; [19],98
same,"Plant response rating, Kochia","[2]; 250 g ai/ha, scale 0 to 100",98
same,"Plant response rating, Corn",[3]; [20],5
same,"Plant response rating, Corn",[3]; [21],15
same,"Plant response rating, Corn",[3]; [22],15
same,"Plant response rating, Corn",[3]; [23],15
same,"Plant response rating, Morningglory",[4]; [20],50
same,"Plant response rating, Morningglory",[4]; [21],75
same,"Plant response rating, Morningglory",[4]; [22],75
same,"Plant response rating, Morningglory",[4]; [23],80
same,plant injury at 125 g/ha,"[5]; post-emergence, Postemergence, 125 g ai/ha, 0 to 100 scale, 0 is no effect, 100 is complete control, read-out: Wheat plant response rating",20%
same,plant injury at 500 g/ha,"[5]; post-emergence, Postemergence, 500 g ai/ha, visual rating on 0 to 100 scale (0 no effect, 100 complete control), approximately ten days, read-out: Wheat plant response rating",30%
same,plant injury at 125 g/ha,"[5]; pre-emergence, Preemergence, 125 g ai/ha, 0 to 100 scale (0 no effect, 100 complete control), read-out: Plant response rating, Wheat",10%
same,plant injury at 500 g/ha,"[5]; pre-emergence, Preemergence, 500 g ai/ha, 0 to 100 scale, 0 is no effect, 100 is complete control, read-out: Plant response rating, Wheat",20%
same,"Plant response rating, Chickweed",[6]; [17],85
same,"Plant response rating, Chickweed",[6]; [18],98
same,"Plant response rating, Chickweed",[6]; [19],100
same,"Plant response rating, Chickweed","[6]; 250 g ai/ha, scale 0 to 100",100
same,pest or weed control at 125 g/ha,"[7]; post-emergence, Postemergence, 125 g ai/ha, 0 to 100 scale, 0 is no effect, 100 is complete control, read-out: Pigweed plant response rating",100%
same,pest or weed control at 500 g/ha,"[7]; post-emergence, Postemergence, 500 g ai/ha, visual rating on 0 to 100 scale (0 no effect, 100 complete control), approximately ten days, read-out: Pigweed plant response rating",100%
same,pest or weed control at 125 g/ha,"[7]; pre-emergence, Preemergence, 125 g ai/ha, 0 to 100 scale (0 no effect, 100 complete control), read-out: Plant response rating, Pigweed",90%
same,pest or weed control at 500 g/ha,"[7]; pre-emergence, Preemergence, 500 g ai/ha, 0 to 100 scale, 0 is no effect, 100 is complete control, read-out: Plant response rating, Pigweed",100%
same,pest or weed control at 125 g/ha,"[8]; post-emergence, Postemergence, 125 g ai/ha, 0 to 100 scale, 0 is no effect, 100 is complete control, read-out: Velvetleaf plant response rating",100%
same,pest or weed control at 500 g/ha,"[8]; post-emergence, Postemergence, 500 g ai/ha, visual rating on 0 to 100 scale (0 no effect, 100 complete control), approximately ten days, read-out: Velvetleaf plant response rating",100%
same,pest or weed control at 125 g/ha,"[8]; pre-emergence, Preemergence, 125 g ai/ha, 0 to 100 scale (0 no effect, 100 complete control), read-out: Plant response rating, Velvetleaf",30%
same,pest or weed control at 500 g/ha,"[8]; pre-emergence, Preemergence, 500 g ai/ha, 0 to 100 scale, 0 is no effect, 100 is complete control, read-out: Plant response rating, Velvetleaf",80%
same,"Plant response rating, Velvetleaf",[9]; [20],10
same,"Plant response rating, Velvetleaf",[9]; [21],65
same,"Plant response rating, Velvetleaf",[9]; [22],65
same,"Plant response rating, Velvetleaf",[9]; [23],85
same,pest or weed control at 125 g/ha,"[10]; post-emergence, Postemergence, 125 g ai/ha, 0 to 100 scale, 0 is no effect, 100 is complete control, read-out: Foxtail, Giant plant response rating",90%
same,pest or weed control at 500 g/ha,"[10]; post-emergence, Postemergence, 500 g ai/ha, visual rating on 0 to 100 scale (0 no effect, 100 complete control), approximately ten days, read-out: Foxtail, Giant plant response rating",90%
same,pest or weed control at 125 g/ha,"[10]; pre-emergence, Preemergence, 125 g ai/ha, 0 to 100 scale (0 no effect, 100 complete control), read-out: Plant response rating, Foxtail, Giant",100%
same,pest or weed control at 500 g/ha,"[10]; pre-emergence, Preemergence, 500 g ai/ha, 0 to 100 scale, 0 is no effect, 100 is complete control, read-out: Plant response rating, Foxtail, Giant",100%
same,"Plant response rating, Wheat",[11]; [20],5
same,"Plant response rating, Wheat",[11]; [21],20
same,"Plant response rating, Wheat",[11]; [22],25
same,"Plant response rating, Wheat",[11]; [23],30
same,"Plant response rating, Wheat",[11]; [24],0
same,"Plant response rating, Wheat",[11]; [25],5
same,"Plant response rating, Wheat",[11]; [26],15
same,"Plant response rating, Wheat",[11]; [27],45
same,"Plant response rating, Ragweed",[12]; [20],5
same,"Plant response rating, Ragweed",[12]; [21],25
same,"Plant response rating, Ragweed",[12]; [22],75
same,"Plant response rating, Ragweed",[12]; [23],75
